Literature values in patent US20240050377A1, “ORAL SOLID CANNABINOID OIL COMPOSITION FOR TREATING CENTRAL NERVOUS SYSTEM DISORDERS” (SOCIETE DES PRODUITS NESTLE S.A., priority 2021, published 2024).
Where “and” joins values, the source holds several entries; their conditions need not be identical. Equal values may be shown once. Read-outs that look alike come from different tables or passages of the source.

Experiments:
[1] = low pH of the stomach; simulated gastric fluid
[2] = humans

SMILES: C=C(C)[C@@H]1CCC(C)=C[C@H]1c1c(O)cc(CCCCC)cc1O [CBD, cannabidiol]
- degradation in stomach environment [1]: high levels of CBD degradation
- mean half-life ([2]; aerosol administration): 1.1 to 2.4 h
- mean half-life ([2]; oral lipid capsule administration): 2.95 h and 3.21 h
- mean half-life ([2]; single oral administration): 1.09 to 1.97 h
